Measured values published in patent US5843449A, “Proteins and novel peptides derived from autoantigen for use in immunotherapy of autoimmune diseases” (Akzo Nobel N.V., priority 1996, dated 1998).
Where “and” joins values, the source holds several entries; their conditions need not be identical. Equal values may be shown once.

Columns and labels:
Assay type in all cases: in vivo
Balb/c mice [1] = experiment: Immunological tolerance by intranasal HC gp-39, DTH assay (footpad swelling)
Description: (§1) Twenty eight μg of protein was administered intranasally (2×10 μl) to 10 female Balb/c mice (anesthetized lightly with Enflurance) using a PT45 micro conduit and a Hamilton syringe. Antigen was administered on day -15, -10 and -5 prior to arthritis induction. Controls (n=10) were submitted to the same procedure but received the vehicle (PBS) only (Table 5).
Immunological tolerance was evaluated by measuring delayed type hypersensitivity (DTH) response following sensitization as described above on day 0, using 10 μg of protein. Sensitization on day 0 was followed by an injection of 10 μg HC gp-39 in […] in the left hind footpad on day 8 (challenge). DTH reactions were measured as the increase in footpad ([swelling left (mm×10^-3)-swelling right (mm×10^-3)]/swelling right (mm×10^-3))×100%. The footpad swelling was measured using an in house designed μmeter at 0, 24 and 48 hr after challenge.

Balb/c mice [2] = experiment: Tolerance to arthritis induction or progression after intranasal HC gp-39; details: for arthritis signs: mild (number of animals): mild: score per animal does not exceed 2; for arthritis signs: severe (number of animals): severe: score per animal ≥4; for arthritis onset (day): first signs appear - highest number of animals affected: monitored to day 31
Description: (§2) 10 or 50 μg of purified HC gp-39 in a 100 μl volume PPBS (0.5M NaCl, 0.01M sodium phosphate buffer, pH 7.5) mixed 1:1 in incomplete Freunds adjuvant (IFA) was injected subcutaneously in the chest region in 2×4 female Balb/c mice (Harlan CPB, Zeist, The Netherlands) whereas 4 controls were injected with PBS (1:1 in IFA). Mice were examined daily for clinical signs of arthritis. Severity of arthritis was assessed by scoring each paw from 0-3 (according to the article by Glant et al). In short, score 0=no changes, score 1=erythema and swelling, score 2=swelling and appearance of deformities, score 3=immobility due to loss of flexion and extension.
as §1
Tolerance to arthritis induction in these same mice was then further monitored until day 31 following sensitization and mice were examined daily for clinical signs. Severity of arthritis was assessed as mentioned above.

Balb/c mice [3] = experiment: Arthritogenicity of HC gp-39 in Balb/c mice; details: for arthritis signs: mild (number of animals) / arthritis signs: none (number of animals) / arthritis signs: severe (number of animals): n = 4; for arthritis signs: mild (number of animals): mild: score per animal does not exceed 2; for arthritis signs: none (number of animals): none: score = 0; for arthritis signs: severe (number of animals): severe: score per animal ≥3
Description: as §2

[4] = controls (n = 10): PBS intranasal, 10 μg HC gp-39 s.c. day 0, 10 μg footpad challenge day 8
[5] = tolerized (n = 9): 28 μg HC gp-39 intranasal day -15, -10, -5, 10 μg s.c. day 0, 10 μg footpad day 8
[6] = controls (n = 10), non-tolerized, 10 μg HC gp-39 s.c.
[7] = tolerized (n = 10): 28 μg HC gp-39 intranasal x3, then 10 μg s.c.

“HC gp-39: Human Cartilage glycoprotein 39, purified from culture supernatant of MG63 human osteosarcoma cells; target autoantigen in RA” was tested, and the “DTH response (in words)” value (Balb/c mice [1]; control (non-tolerized) mice injected with HC gp-39 at day 0) was “strong, antigen-specific DTH response”, the “DTH, mean % swelling 0 hr” value (Balb/c mice [1]; [4]) was -1.3% and the “DTH, mean % swelling 24 hr” value (Balb/c mice [1]; [4]) was 31.4%. The “DTH, mean % swelling 48 hr” value (Balb/c mice [1]; [4]) was 38.6%, the “arthritis ankle (animals affected, adjacent to site of challenge)” value (Balb/c mice [1]; [4]) was 4 out of 10 and 4/10 and four out of ten and the “DTH, mean % swelling 0 hr” value (Balb/c mice [1]; [5]) was -0.05%. For the same substance, the “DTH, mean % swelling 24 hr” value (Balb/c mice [1]; [5]) was 3.7%, the “DTH, mean % swelling 48 hr” value (Balb/c mice [1]; [5]) was 1.5% and the “arthritis ankle (animals affected, adjacent to site of challenge)” value (Balb/c mice [1]; [5]) was “did not develop an arthritis and 0/9 and fully protected”. The “DTH responses upon challenge (in words)” value (Balb/c mice [1]; tolerized by intranasal administration of HC gp-39) was “completely abrogated”, the “arthritis signs: mild (number of animals)” value (from here on “arthritis signs: mild”) (Balb/c mice [2]; [6]) was “three and 3” and the “arthritis signs: none (number of animals)” value (“arthritis signs: none” for short) (Balb/c mice [2]; controls (n = 10), non-tolerized, 10 μg HC gp-39 s.c., no signs: score 0) was 0. The “arthritis signs: severe (number of animals)” value (from here on “arthritis signs: severe”) (Balb/c mice [2]; [6]) was “Seven and 7”, the “arthritis onset (day): first signs appear - highest number of animals affected” value (Balb/c mice [2]; controls (n = 10), non-tolerized, sensitized with 10 μg HC gp-39 s.c.) was 13 to 16 days and the “arthritis onset (day): first signs appear - highest number of animals affected” value (Balb/c mice [2]; tolerized (n = 10): 28 μg HC gp-39 intranasal day -15, -10, -5, then 10 μg s.c.) was 23 to 24 days. For the same substance, the “arthritis signs: mild” value (Balb/c mice [2]; [7]) was “two and 2”, the “arthritis signs: severe” value (Balb/c mice [2]; [7]) was “Three and 3” and the “delay of arthritis onset in tolerized animals, hind and fore paws respectively” value (Balb/c mice [2]; tolerized vs non-tolerized, FIG. 1) was 7 to 9 days. For the same substance, the “arthritis signs: mild” value (Balb/c mice [3]; 10 μg s.c. in IFA) was “One and 1”, the “arthritis signs: none” value (Balb/c mice [3]; 10 μg s.c. in IFA) was 0 and the “arthritis signs: severe” value (Balb/c mice [3]; 10 μg s.c. in IFA) was “Three out of 4 and 3”. The “arthritis signs: mild” value (Balb/c mice [3]; 50 μg s.c. in IFA) was 0, the “arthritis signs: none” value (Balb/c mice [3]; 50 μg s.c. in IFA) was 0 and the “arthritis signs: severe” value (Balb/c mice [3]; 50 μg s.c. in IFA) was “all mice and 4”. The “arthritis onset (day) FP (fore paw), per animal” value (Balb/c mice [3]; 50 μg s.c. in IFA, n = 4 Balb/c mice) was 15 to 20 days and the “frequency of symmetrical distribution of afflicted joints” value (Balb/c mice [3]; 50 μg s.c. in IFA, followed for 62 days) was over 50%.
